This note sets out measurements from ChEMBL document CHEMBL3297733, “Discovery and optimization of pyrrolo[1,2-a]pyrazinones leads to novel and selective inhibitors of PIM kinases” (Bioorg Med Chem, 2013).

The target in data set [1] is Serine/threonine-protein kinase pim-1 (Homo sapiens, UniProt P11309). The data set is described as follows: Inhibition of human PIM1 using ARK-RERTYSFGHHA as substrate incubated for 60 mins prior to substrate addition by topcount scintillation counting analysis in presence of [P33gamma]-ATP.
Data set [2] can be described thus: Cytotoxicity against mouse BA/F3 cells overexpressing PIM1 after 72 hrs by CellTitre-Glo assay. In kind it is functional, cell-based. Conditions: BaF3, 72 h.
A short description of data set [3]: Intrinsic clearance in human liver microsomes after 5 mins by LC-MS/MS analysis. In kind it is ADME. The conditions noted are these: read-out: CLH. Background: Liver microsomes are a subcellular fraction often used to study metabolism.
A short description of data set [4]: Apparent permeability from apical to basolateral side in human Caco2 cells after 120 mins by LC-MS/MS analysis. Conditions: Caco-2. On the technique in general: Passage across Caco-2 layers is used to estimate intestinal permeability.
Data set [5] addresses Serine/threonine-protein kinase pim-2 (Homo sapiens, UniProt Q9P1W9). The data set is described as follows: Inhibition of human PIM2 using ARK-RERTYSFGHHA as substrate incubated for 60 mins prior to substrate addition by topcount scintillation counting analysis in presence of [P33gamma]-ATP.
Data set [6] addresses Glycogen synthase kinase-3 beta (Homo sapiens, UniProt P49841). Put plainly: Inhibition of GSK3beta (unknown origin).
In data set [7] the target is Cyclin-dependent kinase 2 (Homo sapiens, UniProt P24941). The data set is described as follows: Inhibition of CDK2 (unknown origin).
Data set [8] concerns the target Cell division cycle 7-related protein kinase (Homo sapiens, UniProt O00311). The data set is described as follows: Inhibition of CDC7 (unknown origin).
Data set [9] is described as follows: Thermodynamic aqueous solubility of the compound at pH 7. Conditions: buffer. In kind it is physicochemical.
A further data set concerns the target Casein kinase II (Homo sapiens, UniProt P19784+P67870+P68400). The data set is described as follows: Inhibition of CK2 (unknown origin). The data set is classed as protein-complex assay.
In data set [10] the target is Platelet-derived growth factor receptor (Homo sapiens, UniProt P09619+P16234). The data set is described as follows: Inhibition of PDGFR (unknown origin). The data set is classed as protein-complex assay.
Data set [11] can be described thus: Apparent permeability by PAMPA. The data set is classed as physicochemical. In general terms: The PAMPA barrier holds no transporters, so it reflects passive diffusion.

Sequence of Serine/threonine-protein kinase pim-2 (Q9P1W9 whole entry): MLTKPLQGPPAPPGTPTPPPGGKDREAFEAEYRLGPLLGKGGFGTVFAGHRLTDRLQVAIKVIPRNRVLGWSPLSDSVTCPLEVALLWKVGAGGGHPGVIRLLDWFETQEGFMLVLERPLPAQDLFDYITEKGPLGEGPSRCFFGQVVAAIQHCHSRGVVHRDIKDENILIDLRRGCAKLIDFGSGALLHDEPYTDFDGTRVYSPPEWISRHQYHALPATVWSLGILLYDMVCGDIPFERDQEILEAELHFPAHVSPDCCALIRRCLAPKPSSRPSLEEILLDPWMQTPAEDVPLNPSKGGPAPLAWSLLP
Sequence of Serine/threonine-protein kinase pim-1 (P11309 whole entry): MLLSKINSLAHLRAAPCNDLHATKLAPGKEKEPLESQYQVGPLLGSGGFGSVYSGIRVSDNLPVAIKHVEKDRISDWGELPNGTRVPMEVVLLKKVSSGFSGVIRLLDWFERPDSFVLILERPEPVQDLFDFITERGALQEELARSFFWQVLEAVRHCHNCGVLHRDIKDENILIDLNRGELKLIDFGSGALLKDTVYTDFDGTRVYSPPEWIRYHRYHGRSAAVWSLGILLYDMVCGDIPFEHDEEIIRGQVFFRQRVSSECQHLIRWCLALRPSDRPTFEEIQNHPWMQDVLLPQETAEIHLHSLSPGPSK
Sequence of Glycogen synthase kinase-3 beta (P49841 whole entry): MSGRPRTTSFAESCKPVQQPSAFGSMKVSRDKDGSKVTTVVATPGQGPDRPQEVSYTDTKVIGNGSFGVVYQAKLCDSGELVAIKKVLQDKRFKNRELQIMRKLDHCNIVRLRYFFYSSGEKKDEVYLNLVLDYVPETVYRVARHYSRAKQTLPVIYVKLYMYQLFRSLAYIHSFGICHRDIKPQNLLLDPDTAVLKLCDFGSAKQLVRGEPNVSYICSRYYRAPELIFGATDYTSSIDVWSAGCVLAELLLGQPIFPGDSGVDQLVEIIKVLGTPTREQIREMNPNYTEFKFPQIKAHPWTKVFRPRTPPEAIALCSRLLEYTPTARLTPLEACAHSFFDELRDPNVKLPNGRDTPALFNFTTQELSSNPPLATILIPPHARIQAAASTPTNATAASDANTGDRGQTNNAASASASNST
Sequence of Casein kinase II (P67870 whole entry): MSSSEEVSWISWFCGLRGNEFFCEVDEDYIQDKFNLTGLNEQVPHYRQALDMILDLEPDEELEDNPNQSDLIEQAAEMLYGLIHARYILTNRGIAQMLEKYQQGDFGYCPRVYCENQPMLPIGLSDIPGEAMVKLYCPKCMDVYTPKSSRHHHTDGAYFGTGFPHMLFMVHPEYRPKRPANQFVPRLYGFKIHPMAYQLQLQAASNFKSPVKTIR
Sequence of Casein kinase II (P68400 whole entry): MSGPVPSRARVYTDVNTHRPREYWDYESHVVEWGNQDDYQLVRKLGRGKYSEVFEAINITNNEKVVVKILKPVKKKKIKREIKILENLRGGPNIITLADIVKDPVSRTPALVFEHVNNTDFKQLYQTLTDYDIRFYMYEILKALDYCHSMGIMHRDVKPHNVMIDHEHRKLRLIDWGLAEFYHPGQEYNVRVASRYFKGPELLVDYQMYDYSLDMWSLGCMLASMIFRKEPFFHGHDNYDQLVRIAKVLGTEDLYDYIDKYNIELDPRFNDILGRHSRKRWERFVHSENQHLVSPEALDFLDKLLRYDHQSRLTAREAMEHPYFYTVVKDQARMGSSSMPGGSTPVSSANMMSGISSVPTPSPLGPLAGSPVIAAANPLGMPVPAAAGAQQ
Sequence of Casein kinase II (P19784 whole entry): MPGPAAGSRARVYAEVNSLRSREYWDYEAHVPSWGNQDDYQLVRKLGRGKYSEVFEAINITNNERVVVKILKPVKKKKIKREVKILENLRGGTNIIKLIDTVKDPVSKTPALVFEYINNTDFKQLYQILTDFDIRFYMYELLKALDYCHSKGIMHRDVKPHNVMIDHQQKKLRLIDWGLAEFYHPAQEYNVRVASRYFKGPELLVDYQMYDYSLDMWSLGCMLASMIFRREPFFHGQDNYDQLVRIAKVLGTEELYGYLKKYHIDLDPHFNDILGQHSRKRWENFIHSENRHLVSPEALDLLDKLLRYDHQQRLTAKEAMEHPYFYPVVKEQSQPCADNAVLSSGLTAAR
Sequence of Cell division cycle 7-related protein kinase (O00311 whole entry): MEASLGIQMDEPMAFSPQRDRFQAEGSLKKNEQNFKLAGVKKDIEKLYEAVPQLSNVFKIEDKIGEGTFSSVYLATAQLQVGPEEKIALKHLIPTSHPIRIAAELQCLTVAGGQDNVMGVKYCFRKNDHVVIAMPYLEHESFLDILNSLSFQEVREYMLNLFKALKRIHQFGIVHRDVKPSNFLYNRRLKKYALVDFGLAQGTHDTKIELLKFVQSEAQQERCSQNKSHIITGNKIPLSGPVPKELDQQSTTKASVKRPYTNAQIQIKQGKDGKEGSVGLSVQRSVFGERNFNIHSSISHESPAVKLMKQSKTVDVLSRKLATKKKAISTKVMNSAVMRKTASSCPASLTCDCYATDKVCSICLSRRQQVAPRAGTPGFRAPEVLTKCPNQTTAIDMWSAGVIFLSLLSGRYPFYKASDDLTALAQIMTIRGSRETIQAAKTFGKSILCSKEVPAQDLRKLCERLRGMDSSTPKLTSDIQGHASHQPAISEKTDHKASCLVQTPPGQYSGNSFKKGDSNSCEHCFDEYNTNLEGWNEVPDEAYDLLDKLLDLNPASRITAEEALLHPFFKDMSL

One may read the IC50 as the concentration that gives 50% inhibition. For the molecule `CC(C)(C)CNC(=O)CC1CNC(=O)c2cc(-c3cccc(F)c3)cn21` (racemic), in [1], the IC50 came to 1940 nM.

In general, Papp A→B refers to how fast a substance crosses the layer from the apical side. As for `O=C(C[C@H]1CNC(=O)c2cc(-c3cccc(F)c3)cn21)N[C@H](CO)C1CCCCC1`, the values for the IC50 in [2] and in data set [1] were 1530 nM and 16 nM, respectively. For the same molecule, in data set [3], the CLint scaled came out at 14.6 mL/min/kg. Besides, in data set [4], the Papp A→B at 2 h came to 1.1 ×10⁻⁶ cm/s.

Turning to `O=C(CC1CNC(=O)c2cc(-c3cccc(C(F)(F)F)c3)cn21)NCC1CCOCC1` (racemic), the IC50 in [5] worked out at 3130 nM; in data set [1], 838 nM.

With `CN1CCN(C[C@@H](NC(=O)C[C@H]2CNC(=O)c3cc(-c4cc(Cl)ccc4F)cn32)C2CCCCC2)CC1`, in data set [2], the IC50 is 147 nM.

As to `O=C(CC1CNC(=O)c2cc(-c3ccc(F)c(F)c3)cn21)NCc1ccco1` (racemic), the IC50 amounted to 3640 nM in [2] and 125 nM in data set [1].

As to `CN1CCN(C(=O)C[C@H]2CNC(=O)c3cc(-c4cccc(F)c4)cn32)[C@@H](c2ccccc2)C1`, the IC50 in [1] is 233 nM.

The molecule `O=C(CC1CNC(=O)c2cc(-c3cccc(F)c3)cn21)NCC1CCCCC1` (racemic) yielded an IC50 in data set [2] of 1110 nM. The CLint scaled in data set [3] stood at 48.5 mL/min/kg. The Papp A→B at 2 h in [4] turned out to be 11.2 ×10⁻⁶ cm/s.

For `O=C(CC1CNC(=O)c2cc(-c3cccc(C(F)(F)F)c3)cn21)NCC1CCCCC1` (racemic), the IC50 in data set [1] is 375 nM.

In the case of `CC(C)(C)CNC(=O)CC1CNC(=O)c2cc(-c3ccccc3F)cn21` (racemic), the IC50 in data set [1] stood at 1720 nM.

In the case of `C[C@@H](CN1CCN(C)CC1)NC(=O)C[C@H]1CNC(=O)c2cc(-c3cccc(Cl)c3)cn21`, the IC50 is above 5000 nM in data set [5] and 530 nM in [1].

In the case of `O=C(CC1CNC(=O)c2cc(-c3cccc(C(F)(F)F)c3)cn21)NCc1cccc(F)c1` (racemic), the IC50 in data set [1] came to 614 nM.

For `CC(C)(C)CNC(=O)CC1CNC(=O)c2cc(-c3ccc(OC(F)(F)F)cc3)cn21` (racemic), in [1], the IC50 is above 10000 nM.

Regarding `CC(C)(C)CNC(=O)CC1CNC(=O)c2cc(-c3ccncc3)cn21` (racemic), the IC50 in [1] is 5470 nM; in [6], 4610 nM.

As for `CN1CCN(C[C@@H](NC(=O)C[C@H]2CNC(=O)c3cc(-c4cccc(Cl)c4)cn32)C(C)(C)C)CC1`, the results for the IC50 in data set [5] and in data set [1] were 262 nM and 5 nM, respectively.

For the molecule `O=C(C[C@H]1CNC(=O)c2cc(-c3cccc(F)c3)cn21)N[C@H](CO)c1ccccc1`, the half-maximal inhibitory concentration (IC50) in [2] turned out to be 3720 nM; in data set [1] it was 87 nM. The CLint scaled in data set [3] stood at 55 mL/min/kg. The apical-to-basolateral permeability (Papp A→B) at 2 h in [4] stood at 2.7 ×10⁻⁶ cm/s.

Turning to `CN1CCN(C[C@@H](NC(=O)C[C@H]2CNC(=O)c3cc(-c4ccc(F)c(F)c4)cn32)C2CCCCC2)CC1`, the IC50 came to 250 nM in [5], 156 nM in data set [2] and 26 nM in data set [1].

`CC(C)(C)CNC(=O)CC1CNC(=O)c2cc(-c3cccc(C(F)(F)F)c3)cn21` (racemic): the IC50 in data set [1] turned out to be 521 nM.

For the molecule `CC(C)(C)CNC(=O)CC1CNC(=O)c2cc(-c3ccc(F)cc3)cn21` (racemic), the IC50 in data set [1] stood at 2550 nM.

As for `NC[C@@H](NC(=O)C[C@H]1CNC(=O)c2cc(-c3cccc(F)c3)cn21)C1CCCCC1`, the results for the IC50 in data set [5], in data set [2] and in data set [1] were 275 nM, above 10000 nM and 12 nM, respectively. Moreover, the CLint scaled in data set [3] turned out to be 10.1 mL/min/kg. Moreover, the Papp A→B at 2 h in data set [4] amounted to 0.8 ×10⁻⁶ cm/s.

On to `O=C(CC1CNC(=O)c2cc(-c3cc(Cl)ccc3F)cn21)NCc1ccco1` (racemic), for which the figures for the IC50 in [5] and in data set [1] were 2410 nM and 132 nM, respectively.

With `O=C(CC1CNC(=O)c2cc(-c3cn[nH]c3)cn21)NCc1cccc(F)c1` (racemic), the IC50 was 60 nM in data set [7], 284 nM in data set [8], 1100 nM in [1] and 386 nM in data set [6].

Consider `O=C(CC1CNC(=O)c2cc(-c3ccccc3F)cn21)NCC1CCCCC1` (racemic), for which the IC50 in data set [2] was found to be 1790 nM; in data set [1], 124 nM. Also, the CLint scaled in data set [3] stood at 400 mL/min/kg. Further, the Papp A→B at 2 h in data set [4] turned out to be 11.9 ×10⁻⁶ cm/s.

As to `O=C(CC1CNC(=O)c2cc(-c3ccc(F)c(F)c3)cn21)NCC1CCCCC1` (racemic), the IC50 turned out to be 1270 nM in [2] and 94 nM in data set [1]. For the same molecule, the CLint scaled in data set [3] is 400 mL/min/kg. For the same molecule, the Papp A→B at 2 h in data set [4] was 11.8 ×10⁻⁶ cm/s.

As for `O=C(C[C@H]1CNC(=O)c2cc(-c3cccc(F)c3)cn21)N[C@H](CO)Cc1ccccc1`, the 50% inhibitory concentration (IC50) in [2] was 3050 nM; in data set [1], 141 nM. For the same molecule, the CLint scaled in data set [3] amounted to 87.8 mL/min/kg. Moreover, the Papp A→B at 2 h in [4] came to 1.3 ×10⁻⁶ cm/s.

`O=C(CC1CNC(=O)c2cc(-c3cccc(Cl)c3)cn21)NCc1ccco1` (racemic): half-maximal inhibition in data set [2] (IC50) required 2430 nM. In [3], the CLint scaled came out at 97.4 mL/min/kg. Besides, in data set [4], the Papp A→B at 2 h stood at 33.1 ×10⁻⁶ cm/s.

Turning to `CN1CCN(C[C@@H](NC(=O)C[C@H]2CNC(=O)c3cc(-c4ccnc(F)c4)cn32)C2CCCCC2)CC1`, the IC50 in data set [5] amounted to 95 nM; in data set [2], 2480 nM; in [1], 13 nM. Also, in data set [4], the Papp A→B at 2 h worked out at 0.33 ×10⁻⁶ cm/s.

For the molecule `CC(C)(C)CNC(=O)CC1CNC(=O)c2cc(-c3cccc(OC(F)(F)F)c3)cn21` (racemic), the IC50 in data set [1] is 1270 nM.

`NC[C@@H](NC(=O)C[C@H]1CNC(=O)c2cc(-c3ccnc(F)c3)cn21)c1ccccc1`: the IC50 in [2] is above 10000 nM. Besides, the CLint scaled in [3] was found to be 6.5 mL/min/kg. The Papp A→B at 2 h in data set [4] was 0.9 ×10⁻⁶ cm/s.

Consider `O=C(CC1CNC(=O)c2cc(-c3ccnc(Cl)n3)cn21)NCC1CCCCC1` (racemic), for which the IC50 is 1320 nM in [5], above 5000 nM in [2] and 33 nM in data set [1]. Further, in data set [3], the CLint scaled worked out at 197 mL/min/kg. The Papp A→B at 2 h in data set [4] came to 0.9 ×10⁻⁶ cm/s.

In data set [2], `CN(C)C1CCN(C[C@@H](NC(=O)C[C@H]2CNC(=O)c3cc(-c4cccc(Cl)c4)cn32)C2CCCCC2)CC1` came in with an IC50 of 480 nM. In data set [3], the CLint scaled was determined as 5 mL/min/kg. Further, in data set [4], the Papp A→B at 2 h worked out at 1.01 ×10⁻⁶ cm/s.

For orientation: Papp means the rate of passage across a membrane or cell layer, normalised by area and donor concentration. For `CC(C)(C)CNC(=O)CC1CNC(=O)c2cc(-c3ccsc3)cn21` (racemic), in data set [3], the CLint scaled came to 81 mL/min/kg. For the same molecule, in data set [9], the Therm_solubility amounted to 68 mg/mL. In addition, the IC50 (against Casein kinase II; in [10]) was above 10 µM each time. The apparent permeability coefficient (Papp) in [11] was determined as 48 ×10⁻⁶ cm/s.

For `CN1CCN(C[C@@H](NC(=O)C[C@H]2CNC(=O)c3cc(-c4cccc(F)c4)cn32)C2CCCCC2)CC1`, the figures for the IC50 in [5], in data set [2] and in data set [1] were 150 nM, 490 nM and 9 nM, respectively. In addition, the CLint scaled in data set [3] was found to be 6.7 mL/min/kg.

Take `Cc1ccc(Cl)cc1-c1cc2n(c1)C(CC(=O)NCc1ccco1)CNC2=O` (racemic): the IC50 in data set [5] and in [1] was above 5000 nM throughout.

As for `NC[C@@H](NC(=O)C[C@H]1CNC(=O)c2cc(-c3cccc(F)c3)cn21)c1ccccc1`, the IC50 in data set [2] was above 10000 nM; in data set [1], 10 nM. In addition, the CLint scaled in data set [3] is 8.3 mL/min/kg. In data set [4], the Papp A→B at 2 h is 0.6 ×10⁻⁶ cm/s.

In the case of `CC(C)(C)CNC(=O)CC1CNC(=O)c2cc(-c3ccccc3)cn21` (racemic), the IC50 in data set [1] was found to be 2540 nM.
